Results reported in BindingDB's records for doi:10.1016/0896-6273(93)90149-l (The Scripps Research Institute, 1993).

Assays:
[1] = biological target: 5-hydroxytryptamine receptor 7 (Rattus norvegicus, UniProt P32305)
[2] = biological target: T1, 5-hydroxytryptamine receptor 1A (Rattus norvegicus, UniProt P19327)
T1 sequence (P19327 whole entry): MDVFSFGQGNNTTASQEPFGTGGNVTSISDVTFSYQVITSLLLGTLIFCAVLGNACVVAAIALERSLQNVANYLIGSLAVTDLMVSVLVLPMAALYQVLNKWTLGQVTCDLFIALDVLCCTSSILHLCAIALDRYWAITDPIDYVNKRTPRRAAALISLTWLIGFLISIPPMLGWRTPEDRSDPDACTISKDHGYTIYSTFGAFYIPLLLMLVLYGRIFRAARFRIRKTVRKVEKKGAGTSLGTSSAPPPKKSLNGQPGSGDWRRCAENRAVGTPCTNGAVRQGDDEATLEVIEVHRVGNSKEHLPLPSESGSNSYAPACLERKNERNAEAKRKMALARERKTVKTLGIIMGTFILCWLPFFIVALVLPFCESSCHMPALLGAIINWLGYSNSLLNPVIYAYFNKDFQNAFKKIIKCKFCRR

Sequence of 5-hydroxytryptamine receptor 7 (P32305 whole entry): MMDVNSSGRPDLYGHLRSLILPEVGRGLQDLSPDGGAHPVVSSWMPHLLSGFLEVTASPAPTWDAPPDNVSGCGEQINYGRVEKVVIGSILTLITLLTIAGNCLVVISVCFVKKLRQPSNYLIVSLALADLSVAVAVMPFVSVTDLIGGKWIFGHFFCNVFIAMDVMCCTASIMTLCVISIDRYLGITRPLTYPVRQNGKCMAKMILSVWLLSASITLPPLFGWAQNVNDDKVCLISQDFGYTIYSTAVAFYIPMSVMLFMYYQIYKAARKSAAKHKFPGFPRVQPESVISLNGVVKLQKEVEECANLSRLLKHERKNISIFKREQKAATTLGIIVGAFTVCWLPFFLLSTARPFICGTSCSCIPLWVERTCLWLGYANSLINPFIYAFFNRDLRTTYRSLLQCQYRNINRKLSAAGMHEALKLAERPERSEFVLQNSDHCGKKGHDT

SMILES	Ki [1]	Ki [2]
CCCN(CCC)C1CCc2cccc(O)c2C1 (stereo not given)	53 nM	–
Cc1nc2sccn2c(=O)c1CCN1CCC(=C(c2ccc(F)cc2)c2ccc(F)cc2)CC1	33 nM	–
CC[C@@H](CO)NC(=O)[C@@H]1C=C2c3cccc4c3c(cn4C)C[C@H]2N(C)C1	17 nM	545 nM
NCCc1ccc(O)c(O)c1	545 nM	545 nM
COc1ccccc1N1CCN(CCCCN2C(=O)c3ccccc3C2=O)CC1 [2-{4-[4-(2-Methoxy-phenyl)-piperazin-1-yl]-butyl}-isoindole-1,3-dione]	79.1 nM	–
CN1C[C@H](C(=O)N[C@]2(C)O[C@@]3(O)[C@@H]4CCCN4C(=O)[C@H](Cc4ccccc4)N3C2=O)C=C2c3cccc4[nH]cc(c34)C[C@H]21 [12'-hydroxy-2'-methyl-5'alpha-(phenylmethyl)ergotaman-3',6',18-trione]	17 nM	3 nM
O=C1CC2(CCCC2)CC(=O)N1CCCCN1CCN(c2ncccn2)CC1 [BUSPAR]	375 nM	–
CC(C)NCC(O)COc1cccc2[nH]ccc12 (stereo not given) [LB-46]	545 nM	31 nM
CN1C[C@@H](NS(=O)(=O)N(C)C)C[C@@H]2c3cccc4c3c(cn4C)C[C@H]21 [MESULERGINE]	9.3 nM	545 nM
CN1C[C@H](CNC(=O)OCc2ccccc2)C[C@@H]2c3cccc4c3c(cn4C)C[C@H]21 [METERGOLINE]	16 nM	273 nM
CNS(=O)(=O)Cc1ccc2[nH]cc(CCN(C)C)c2c1 [Sumax]	545 nM	–
COc1cc(N)c(Cl)cc1C(=O)NC1CN2CCC1CC2 (stereo not given) [ZACOPRIDE,R]	545 nM	–
NCCc1c[nH]c2ccc(C(N)=O)cc12 [[3H]-5-carboxamidotryptamine]	0.45 nM	–
CSc1ccc2c(c1)C(N1CCN(C)CC1)Cc1ccccc1S2 (stereo not given) [methanesulfonic acid;1-methyl-4-(3-methylsulfanyl-5,6-dihydrobenzo[b][1]benzothiepin-5-yl)piperazine]	–	8.7 nM
